Values after ≈ are worked out from the molar mass of the structure shown.
How the values were obtained:
Experiment in all cases: Bacterial growth minimal inhibitory concentration (microdilution, CLSI M7-A7)
Type in all cases: cell-based
[1] = tested on: P. aeruginosa ATCC27853; settings: Pseudomonas aeruginosa, ATCC27853; quinolone-sensitive strain; cation-adjusted Mueller-Hinton Broth
Procedure: (§1) Minimal Inhibitory Concentrations (MICs; mg/L) were determined in cation-adjusted Mueller-Hinton Broth by a microdilution method following the description given in “Methods for Dilution Antimicrobial Susceptibility Tests for Bacteria that Grow Aerobically”, Approved standard, 7th ed., Clinical and Laboratory Standards Institute (CLSI) Document M7-A7, Wayne, Pa., USA (2006).
(§2) All Example compounds were tested against several Gram-positive and Gram-negative bacteria. […] K. pneumoniae A-651 and Acinetobacter baumannii T6474 are multiply-resistant strains (in particular quinolone-resistant), while E. coli ATCC25922 and P. aeruginosa ATCC27853 are quinolone-sensitive strains.

[2] = tested on: E. coli ATCC25922; settings: Escherichia coli, ATCC25922; quinolone-sensitive strain; cation-adjusted Mueller-Hinton Broth
Procedure: as §1, §2

[3] = tested on: K. pneumoniae A-651; settings: Klebsiella pneumoniae, A651; multiply-resistant strain (in particular quinolone-resistant); cation-adjusted Mueller-Hinton Broth
Procedure: as §1, §2

[4] = tested on: Acinetobacter baumannii T6474; settings: Acinetobacter baumannii, T6474; multiply-resistant strain (in particular quinolone-resistant); cation-adjusted Mueller-Hinton Broth
Procedure: as §1, §2

Row | SMILES | MIC [1] [µg/mL] | MIC [2] [µg/mL] | MIC [3] [µg/mL] | MIC [4] [µg/mL]
1 | C[C@@](CCn1ccc2cc(C#CC#C[C@@H]3C[C@H]3CO)c(F)cc21)(C(=O)NO)S(C)(=O)=O (relative stereo) [Example 41, (R)-4-(6-fluoro-5-(((1R*,2R*)-2-(hydroxymethyl)cyclopropyl)buta-1,3-diyn-1-yl)-1H-indol-1-yl)-N-hydroxy-2-methyl-2-(methylsulfonyl)butanamide] | 1 (≈ 2.24 µM) | 0.125 (≈ 0.28 µM) | 0.125 (≈ 0.28 µM) | 16 (≈ 35.8 µM)
2 | COc1ccc(-c2ccc3c(ccn3CC[C@](C)(C(=O)NO)S(C)(=O)=O)c2)c(F)c1 (single isomer, unassigned) [Example 2] | 2 (≈ 4.6 µM) | 0.125 (≈ 0.288 µM) | 2 (≈ 4.6 µM) | 8 (≈ 18.4 µM)
3 | C[C@@](CCn1ccc2cc(C#Cc3ccc(C4(O)COC4)cc3)c(F)cc21)(C(=O)NO)S(C)(=O)=O (single isomer, unassigned) [Example 15] | 1 (≈ 2 µM) | 0.5 (≈ 0.999 µM) | 0.5 (≈ 0.999 µM) | 0.25 (≈ 0.499 µM)
4 | CSc1ccc(-c2ccc3c(cnn3CC[C@](C)(C(=O)NO)S(C)(=O)=O)c2)c(F)c1 [Example 1, (R)-4-(5-(2-fluoro-4-(methylthio)phenyl)-1H-indazol-1-yl)-N-hydroxy-2-methyl-2-(methylsulfonyl)butanamide] | 4 (≈ 8.86 µM) | ≤ 0.063 | 0.25 (≈ 0.554 µM) | 16 (≈ 35.4 µM)
5 | COc1ccc(-c2ccc3c(cnn3CC[C@](C)(C(=O)NO)S(C)(=O)=O)c2)c(F)c1 [Example 3, (R)-4-(5-(2-fluoro-4-methoxyphenyl)-1H-indazol-1-yl)-N-hydroxy-2-methyl-2-(methylsulfonyl)butanamide] | 1 (≈ 2.3 µM) | 0.25 (≈ 0.574 µM) | 1 (≈ 2.3 µM) | 1 (≈ 2.3 µM)
6 | C[C@@](CCn1ncc2cc(C#Cc3ccc(CO)cc3)ccc21)(C(=O)NO)S(C)(=O)=O [Example 4, (R)—N-hydroxy-4-(5-((4-(hydroxymethyl)phenyl)ethynyl)-1H-indazol-1-yl)-2-methyl-2-(methylsulfonyl)butanamide] | 2 (≈ 4.53 µM) | 0.125 (≈ 0.283 µM) | ≤ 0.063 | 0.125 (≈ 0.283 µM)
7 | C[C@@](CCn1ncc2cc(C#CC#CC3(O)COC3)ccc21)(C(=O)NO)S(C)(=O)=O [Example 5, (R)—N-hydroxy-4-(5-((3-hydroxyoxetan-3-yl)buta-1,3-diyn-1-yl)-1H-indazol-1-yl)-2-methyl-2-(methylsulfonyl)butanamide] | 2 (≈ 4.64 µM) | 1 (≈ 2.32 µM) | 1 (≈ 2.32 µM) | > 32
8 | C[C@@](CCn1ncc2cc(-c3ccc(-n4nccn4)cc3)ccc21)(C(=O)NO)S(C)(=O)=O [Example 6, (R)-4-(5-(4-(2H-1,2,3-triazol-2-yl)phenyl)-1H-indazol-1-yl)-N-hydroxy-2-methyl-2-(methylsulfonyl)butanamide] | 2 (≈ 4.4 µM) | ≤ 0.063 | 0.125 (≈ 0.275 µM) | 0.125 (≈ 0.275 µM)
9 | CC(C)(O)C#CC#Cc1ccc2c(cnn2CC[C@](C)(C(=O)NO)S(C)(=O)=O)c1 [Example 7, (R)—N-hydroxy-4-(5-(5-hydroxy-5-methylhexa-1,3-diyn-1-yl)-1H-indazol-1-yl)-2-methyl-2-(methylsulfonyl)butanamide] | 2 (≈ 4.79 µM) | 0.5 (≈ 1.2 µM) | 1 (≈ 2.4 µM) | 32 (≈ 76.6 µM)
10 | CC(C)(O)c1ccc(C#Cc2ccc3c(cnn3CC[C@](C)(C(=O)NO)S(C)(=O)=O)c2)cc1 [Example 8, (R)—N-hydroxy-4-(5-((4-(2-hydroxypropan-2-yl)phenyl)ethynyl)-1H-indazol-1-yl)-2-methyl-2-(methylsulfonyl)butanamide] | 2 (≈ 4.26 µM) | 0.125 (≈ 0.266 µM) | 0.25 (≈ 0.532 µM) | 0.25 (≈ 0.532 µM)
11 | C[C@@](CCn1ccc2cc(C#Cc3ccc(CO)cc3)ccc21)(C(=O)NO)S(C)(=O)=O [Example 9, (R)—N-hydroxy-4-(5-((4-(hydroxymethyl)phenyl)ethynyl)-1H-indol-1-yl)-2-methyl-2-(methylsulfonyl)butanamide] | 1 (≈ 2.27 µM) | ≤ 0.063 | 0.125 (≈ 0.284 µM) | 0.125 (≈ 0.284 µM)
12 | C[C@@](CCn1ccc2cc(C#Cc3ccc(C4(O)COC4)cc3)ccc21)(C(=O)NO)S(C)(=O)=O [Example 10, (R)—N-hydroxy-4-(5-((4-(3-hydroxyoxetan-3-yl)phenyl)ethynyl)-1H-indol-1-yl)-2-methyl-2-(methylsulfonyl)butanamide] | 1 (≈ 2.07 µM) | 0.125 (≈ 0.259 µM) | 0.25 (≈ 0.518 µM) | 0.125 (≈ 0.259 µM)

Other lines, results leading:

Row | MIC [1] [µg/mL] | MIC [2] [µg/mL] | MIC [3] [µg/mL] | MIC [4] [µg/mL] | SMILES
13 | 16 (≈ 42.3 µM) | 8 (≈ 21.1 µM) | 16 (≈ 42.3 µM) | 16 (≈ 42.3 µM) | CC#CCOc1ccc2c(ccn2CCC(C)(C(=O)NO)S(C)(=O)=O)c1 (racemic) [RE1, (RS)-4-(5-(but-2-yn-1-yloxy)-1H-indol-1-yl)-N-hydroxy-2-methyl-2-(methylsulfonyl)butanamide]
14 | 16 (≈ 36.7 µM) | 8 (≈ 18.4 µM) | 16 (≈ 36.7 µM) | 32 (≈ 73.5 µM) | COc1cccc(-c2ccc3c(cnn3CCC(C)(C(=O)NO)S(C)(=O)=O)c2)c1F (racemic) [RE2, (RS)-4-(5-(2-fluoro-3-methoxyphenyl)-1H-indazol-1-yl)-N-hydroxy-2-methyl-2-(methylsulfonyl)butanamide]
15 | 16 (≈ 38.7 µM) | 0.25 (≈ 0.605 µM) | 1 (≈ 2.42 µM) | 0.25 (≈ 0.605 µM) | CC(CCn1ncc2cc(/C=C/c3ccccc3)ccc21)(C(=O)NO)S(C)(=O)=O (racemic) [RE3, (RS)-(E)-N-hydroxy-2-methyl-2-(methylsulfonyl)-4-(5-styryl-1H-indazol-1-yl)butanamide]
16 | 8 (≈ 19.3 µM) | 2 (≈ 4.81 µM) | 0.5 (≈ 1.2 µM) | 8 (≈ 19.3 µM) | CC(CCn1ncc2cc(CCc3ccccc3)ccc21)(C(=O)NO)S(C)(=O)=O (racemic) [RE4, (RS)—N-hydroxy-2-methyl-2-(methylsulfonyl)-4-(5-phenethyl-1H-indazol-1-yl)butanamide]
17 | 16 | 0.5 | 0.5 | 32 | CC(CCn1ncc2cc(C#Cc3ccc(CN4CCOCC4)cc3)ccc21)(C(=O)NO)S(C)(=O)=O.Cc1ccc(S(=O)(=O)O)cc1 (racemic) [RE5, (RS)—N-hydroxy-2-methyl-2-(methylsulfonyl)-4-(5-((4-(morpholinomethyl)phenyl)ethynyl)-1H-indazol-1-yl)butanamide 4-toluenesulfonic acid salt]
18 | 8 (≈ 18.8 µM) | 0.25 (≈ 0.586 µM) | 0.5 (≈ 1.17 µM) | 1 (≈ 2.34 µM) | CC(CCn1ncc2cc(C#Cc3ccc(N)cc3)ccc21)(C(=O)NO)S(C)(=O)=O (racemic) [RE6, (RS)-4-(5-((4-aminophenyl)ethynyl)-1H-indazol-1-yl)-N-hydroxy-2-methyl-2-(methylsulfonyl)butanamide]
19 | 8 (≈ 17 µM) | 4 (≈ 8.48 µM) | 1 (≈ 2.12 µM) | 8 (≈ 17 µM) | CC(CCn1ncc2cc(-c3ccc(OC(F)(F)F)cc3)ccc21)(C(=O)NO)S(C)(=O)=O (racemic) [RE7, (RS)—N-hydroxy-2-methyl-2-(methylsulfonyl)-4-(5-(4-(trifluoromethoxy)phenyl)-1H-indazol-1-yl)butanamide]
20 | 8 | 0.25 | ≤ 0.063 | 0.5 | CC(CCn1ccc2cc(-c3ccc(-n4nccn4)cc3)ccc21)(C(=O)NO)S(C)(=O)=O.O=CO (racemic) [RE8, (RS)-4-(5-(4-(2H-1,2,3-triazol-2-yl)phenyl)-1H-indol-1-yl)-N-hydroxy-2-methyl-2-(methylsulfonyl)butanamide formate]
21 | 8 (≈ 17 µM) | 4 (≈ 8.5 µM) | 2 (≈ 4.25 µM) | 2 (≈ 4.25 µM) | CC(CCn1ccc2cc(-c3ccc(OC(F)(F)F)cc3)ccc21)(C(=O)NO)S(C)(=O)=O (racemic) [RE9, (RS)—N-hydroxy-2-methyl-2-(methylsulfonyl)-4-(5-(4-(trifluoromethoxy)phenyl)-1H-indol-1-yl)butanamide]
22 | 8 (≈ 17.8 µM) | 2 (≈ 4.44 µM) | 0.5 (≈ 1.11 µM) | 4 (≈ 8.88 µM) | CSc1ccc(-c2ccc3c(ccn3CCC(C)(C(=O)NO)S(C)(=O)=O)c2)c(F)c1 (racemic) [RE10, (RS)-4-(5-(2-fluoro-4-(methylthio)phenyl)-1H-indol-1-yl)-N-hydroxy-2-methyl-2-(methylsulfonyl)butanamide]
23 | 8 (≈ 17.7 µM) | 1 (≈ 2.21 µM) | 2 (≈ 4.42 µM) | 4 (≈ 8.84 µM) | COc1ccc(-c2cc3ccn(CCC(C)(C(=O)NO)S(C)(=O)=O)c3cc2F)c(F)c1 (racemic) [RE11, (RS)-4-(6-fluoro-5-(2-fluoro-4-methoxyphenyl)-1H-indol-1-yl)-N-hydroxy-2-methyl-2-(methylsulfonyl)butanamide]
24 | 2 (≈ 4.42 µM) | 2 (≈ 4.42 µM) | 4 (≈ 8.84 µM) | 2 (≈ 4.42 µM) | COc1ccc(-c2ccc3c(ccn3CCC(C)(C(=O)NO)S(C)(=O)=O)c2F)c(F)c1 (racemic) [RE12, (RS)-4-(4-fluoro-5-(2-fluoro-4-methoxyphenyl)-1H-indol-1-yl)-N-hydroxy-2-methyl-2-(methylsulfonyl)butanamide]
25 | 2 (≈ 4 µM) | 0.25 (≈ 0.499 µM) | 0.5 (≈ 0.999 µM) | 4 (≈ 7.99 µM) | CC(CCn1ccc2c(F)c(C#Cc3ccc(C4(O)COC4)cc3)ccc21)(C(=O)NO)S(C)(=O)=O (racemic) [RE13, (RS)-4-(4-fluoro-5-((4-(3-hydroxyoxetan-3-yl)phenyl)ethynyl)-1H-indol-1-yl)-N-hydroxy-2-methyl-2-(methylsulfonyl)butanamide]
